Assay results: the NIST ThermoML archive (doi:10.1016/j.tca.2015.01.012)
“And” between values parts separate entries of the source, which are not always exact repeats. Identical values can stand only once.

Experiment: molar heat capacity at constant pressure
Conditions: 101.33 kPa, Crystal, Small (less than 1 g) adiabatic calorimetry

O=C(O)c1cccnc1 [3-carboxylpyridine]
Conditions | molar heat capacity at constant pressure
1 K | 0.0015 J/K/mol
2 K | 0.0121 J/K/mol
3 K | 0.0409 J/K/mol
4 K | 0.0968 J/K/mol
5 K | 0.1891 J/K/mol
5.3 K | 0.2521 J/K/mol
5.53 K | 0.2833 J/K/mol
5.71 K | 0.3119 J/K/mol
5.9 K | 0.3323 J/K/mol
6 K | 0.3359 J/K/mol
6.07 K | 0.3625 J/K/mol
6.23 K | 0.3927 J/K/mol
6.39 K | 0.3921 J/K/mol
6.55 K | 0.4232 J/K/mol
6.7 K | 0.4579 J/K/mol
6.86 K | 0.5025 J/K/mol
7 K | 0.5397 J/K/mol
7.03 K | 0.5557 J/K/mol
7.19 K | 0.5983 J/K/mol
7.36 K | 0.6211 J/K/mol
7.52 K | 0.6706 J/K/mol
7.69 K | 0.6993 J/K/mol
7.84 K | 0.7188 J/K/mol
8 K | 0.7924 J/K/mol and 0.8151 J/K/mol
8.17 K | 0.8389 J/K/mol
8.34 K | 0.8744 J/K/mol
8.51 K | 0.9394 J/K/mol
8.68 K | 1.001 J/K/mol
8.86 K | 1.063 J/K/mol
9 K | 1.099 J/K/mol
9.03 K | 1.093 J/K/mol
9.21 K | 1.135 J/K/mol
9.38 K | 1.246 J/K/mol
9.56 K | 1.315 J/K/mol
9.73 K | 1.428 J/K/mol
9.92 K | 1.479 J/K/mol
10 K | 1.48 J/K/mol
10.17 K | 1.542 J/K/mol
10.5 K | 1.674 J/K/mol
10.82 K | 1.86 J/K/mol
11.15 K | 2.012 J/K/mol
11.48 K | 2.15 J/K/mol
11.83 K | 2.356 J/K/mol
12.19 K | 2.553 J/K/mol
12.55 K | 2.742 J/K/mol
12.92 K | 2.969 J/K/mol
13.29 K | 3.19 J/K/mol
13.67 K | 3.425 J/K/mol
14.06 K | 3.628 J/K/mol
14.45 K | 3.87 J/K/mol
14.84 K | 4.121 J/K/mol
15 K | 4.221 J/K/mol
15.23 K | 4.365 J/K/mol
15.63 K | 4.629 J/K/mol
16.04 K | 4.894 J/K/mol
16.44 K | 5.19 J/K/mol
16.85 K | 5.494 J/K/mol
17.27 K | 5.794 J/K/mol
17.67 K | 6.094 J/K/mol
18.09 K | 6.421 J/K/mol
18.52 K | 6.77 J/K/mol
18.95 K | 7.125 J/K/mol
19.38 K | 7.466 J/K/mol
19.82 K | 7.809 J/K/mol
20 K | 7.998 J/K/mol
20.68 K | 8.601 J/K/mol
22 K | 9.701 J/K/mol
23.36 K | 10.88 J/K/mol
24.74 K | 12.09 J/K/mol
25 K | 12.34 J/K/mol
26.14 K | 13.4 J/K/mol
27.57 K | 14.79 J/K/mol
29.02 K | 16.15 J/K/mol
30 K | 17.11 J/K/mol
30.49 K | 17.6 J/K/mol
31.97 K | 18.99 J/K/mol
33.48 K | 20.37 J/K/mol
34.99 K | 21.77 J/K/mol
35 K | 21.76 J/K/mol
36.53 K | 23.11 J/K/mol
38.07 K | 24.44 J/K/mol
39.63 K | 25.75 J/K/mol
40 K | 26.08 J/K/mol
41.2 K | 27.05 J/K/mol
42.78 K | 28.38 J/K/mol
44.36 K | 29.6 J/K/mol
45 K | 30.14 J/K/mol
45.95 K | 30.92 J/K/mol
47.56 K | 32.14 J/K/mol
49.17 K | 33.43 J/K/mol
50 K | 33.99 J/K/mol
50.79 K | 34.59 J/K/mol
52.41 K | 35.8 J/K/mol
54.04 K | 36.96 J/K/mol
55.68 K | 38.11 J/K/mol
57.33 K | 39.19 J/K/mol
58.97 K | 40.29 J/K/mol
60 K | 40.99 J/K/mol
60.63 K | 41.38 J/K/mol
62.28 K | 42.42 J/K/mol
63.94 K | 43.46 J/K/mol
65.61 K | 44.41 J/K/mol
67.28 K | 45.36 J/K/mol
68.95 K | 46.38 J/K/mol
70 K | 47 J/K/mol
70.62 K | 47.37 J/K/mol
72.71 K | 48.52 J/K/mol
75.22 K | 49.8 J/K/mol
77.73 K | 51.14 J/K/mol
80 K | 52.23 J/K/mol
80.25 K | 52.35 J/K/mol
80.98 K | 52.79 J/K/mol
82.78 K | 53.53 J/K/mol
84.21 K | 54.31 J/K/mol
85.31 K | 54.74 J/K/mol
86.73 K | 55.5 J/K/mol
87.85 K | 55.91 J/K/mol
89.25 K | 56.68 J/K/mol
90 K | 56.95 J/K/mol
90.39 K | 57.08 J/K/mol
91.78 K | 57.81 J/K/mol
94.31 K | 59 J/K/mol
96.84 K | 60.11 J/K/mol
99.38 K | 61.16 J/K/mol
100 K | 61.37 J/K/mol
101.92 K | 62.18 J/K/mol
104.47 K | 63.23 J/K/mol
107.02 K | 64.34 J/K/mol
109.57 K | 65.35 J/K/mol
110 K | 65.59 J/K/mol
112.12 K | 66.36 J/K/mol
114.68 K | 67.47 J/K/mol
117.24 K | 68.52 J/K/mol
119.81 K | 69.55 J/K/mol
120 K | 69.67 J/K/mol
122.39 K | 70.55 J/K/mol
124.96 K | 71.54 J/K/mol
127.53 K | 72.56 J/K/mol
130 K | 73.64 J/K/mol
130.1 K | 73.62 J/K/mol
132.68 K | 74.7 J/K/mol
135.26 K | 75.71 J/K/mol
137.83 K | 76.72 J/K/mol
140 K | 77.53 J/K/mol
140.41 K | 77.7 J/K/mol
142.99 K | 78.8 J/K/mol
145.58 K | 79.79 J/K/mol
148.16 K | 80.74 J/K/mol
150 K | 81.39 J/K/mol
150.75 K | 81.72 J/K/mol
153.33 K | 82.67 J/K/mol
155.92 K | 83.7 J/K/mol
158.51 K | 84.71 J/K/mol
160 K | 85.26 J/K/mol
161.1 K | 85.73 J/K/mol
163.71 K | 86.79 J/K/mol
166.31 K | 87.79 J/K/mol
168.9 K | 88.81 J/K/mol
170 K | 89.19 J/K/mol
171.49 K | 89.87 J/K/mol
174.09 K | 90.88 J/K/mol
176.68 K | 91.97 J/K/mol
179.28 K | 92.85 J/K/mol
180 K | 93.23 J/K/mol
181.87 K | 93.96 J/K/mol
184.47 K | 95.03 J/K/mol
187.07 K | 96.11 J/K/mol
189.66 K | 97.14 J/K/mol
190 K | 97.4 J/K/mol
192.26 K | 98.33 J/K/mol
194.86 K | 99.43 J/K/mol
197.45 K | 100.6 J/K/mol
200 K | 101.7 J/K/mol
200.05 K | 101.7 J/K/mol
202.65 K | 102.8 J/K/mol
205.28 K | 104.1 J/K/mol
207.88 K | 105.2 J/K/mol
210 K | 106.3 J/K/mol
210.48 K | 106.4 J/K/mol
213.09 K | 107.6 J/K/mol
215.69 K | 109 J/K/mol
218.3 K | 110 J/K/mol
220 K | 110.9 J/K/mol
220.91 K | 111.3 J/K/mol
223.52 K | 112.6 J/K/mol
226.13 K | 113.8 J/K/mol
228.74 K | 115.2 J/K/mol
230 K | 115.8 J/K/mol
231.36 K | 116.7 J/K/mol
233.98 K | 117.7 J/K/mol
236.59 K | 119.1 J/K/mol
239.21 K | 120.4 J/K/mol
240 K | 120.8 J/K/mol
241.83 K | 121.8 J/K/mol
244.45 K | 123.1 J/K/mol
247.11 K | 124.5 J/K/mol
249.74 K | 125.8 J/K/mol
250 K | 125.8 J/K/mol
252.36 K | 127.1 J/K/mol
254.98 K | 128.5 J/K/mol
257.61 K | 129.8 J/K/mol
260 K | 131 J/K/mol
260.24 K | 131.1 J/K/mol
262.86 K | 132.5 J/K/mol
265.49 K | 134 J/K/mol
268.12 K | 135.3 J/K/mol
270 K | 136.3 J/K/mol
270.75 K | 136.7 J/K/mol
273.15 K | 137.9 J/K/mol
273.38 K | 138.2 J/K/mol
276.01 K | 139.3 J/K/mol
278.63 K | 140.8 J/K/mol
280 K | 141.6 J/K/mol
281.26 K | 142.3 J/K/mol
283.88 K | 143.5 J/K/mol
286.5 K | 144.8 J/K/mol
289.15 K | 146.5 J/K/mol
290 K | 146.9 J/K/mol
291.77 K | 147.8 J/K/mol
294.38 K | 149.3 J/K/mol
296.99 K | 150.7 J/K/mol
298.15 K | 151.3 J/K/mol
299.59 K | 152.1 J/K/mol
300 K | 152.3 J/K/mol
302.64 K | 153.7 J/K/mol
306.07 K | 155.5 J/K/mol
309.49 K | 157.1 J/K/mol
310 K | 157.7 J/K/mol
312.9 K | 159 J/K/mol
316.3 K | 161.2 J/K/mol
319.71 K | 162.9 J/K/mol
320 K | 163.1 J/K/mol
323.11 K | 164.8 J/K/mol
326.5 K | 166.8 J/K/mol
329.88 K | 168.6 J/K/mol
330 K | 168.5 J/K/mol
333.26 K | 170.6 J/K/mol
336.64 K | 172.4 J/K/mol
340 K | 174 J/K/mol
343.36 K | 175.7 J/K/mol
346 K | 177.3 J/K/mol
346.71 K | 177.4 J/K/mol
